Measured values reported in patent US9580398B2, “Compounds, compositions, and methods for modulating ferroptosis and treating excitotoxic disorders” (The Trustees of Columbia University in the City of New York, priority 2012, dated 2017).

Tests used:
[1] = test system: erastin (10 μM)-treated HT-1080 cells; assay: Inhibition of death in erastin (10 μM)-treated HT-1080 cells, viability by Alamar Blue; format: cell-based, human; conditions: inhibition of death in erastin (10 μM)-treated HT-1080 cells; Alamar Blue; from dose response curves
Method: (§1) Cell viability was typically assessed in 384-well format by Alamar Blue (Invitrogen) fluorescence (ex/em 530/590) measured on a Victor3 platereader (Perkin Elmer, Waltham, Mass.). In some experiments, Trypan Blue dye exclusion counting was performed using an automated cell counter (ViCell, Beckman-Coulter Inc., Brea, Calif.). Cell viability in test conditions is reported as a percentage relative to the negative control treatment.
Flow cytometry data was analyzed using FloJo (9.3.2, Tree Star, Inc., Ashland, Oreg.). Chemical structures were drawn using ChemDraw Ultra (Cambridgesoft, Cambridge, Mass.). Computational determination of log P (Slog P function) was performed using MOE 2010.10 (Chemical Computing Group, Montreal, […].). Viability data was analyzed using Excel (Microsoft Corp., […].). Summary data and heatmaps were generated using R. Dose-response curves were computed by 4-parameter logistic regression in Prism 5.0c (GraphPad Software). Images were manipulated using Photoshop CS4 and Illustrator CS4 (Adobe, San Jose, Calif.).
The ability of various compounds disclosed herein to inhibit death in erastin (10 μM)-treated HT-1080 cells were tested. Cell viability was assessed by Alamar Blue. EC50 values (nM) were computed from dose response curves.

[2] = test system: ERK phosphorylation in HT-1080 cells; assay: Western blotting of ERK phosphorylation; format: cell-based, human
Method: Cells were trypsinized, pelleted, and washed once in PBS. Cells were lysed for 20 minutes in buffer containing: 50 mM HEPES pH 7.4, 40 mM NaCl, 2 mM EDTA, 0.5% Triton X-100, 1.5 mM sodium orthovanadate, 50 mM NaF, 10 mM sodium pyrophosphate, 10 mM sodium β-glycerophosphate, and protease inhibitor tablet (Roche, Nutley, N.J.). Unlysed cells and debris were pelleted for 10 minutes at 10,000 rpm in a benchtop microcentrifuge at 4° C., and the supernatant was removed and mixed with 5×SDS loading buffer. Samples were separated by SDS-polyacrylamide gel electrophoresis. Western transfer was performed using the iBlot system (Invitrogen). Membrane was blocked for 1 hour in Licor Odyssey Blocking Buffer (LI-COR) and incubated in primary antibody overnight at 4° C. Following three 5-minute washes in Tris-buffered saline (pH 7.4) with 1% Tween-20 (TBS-T), membrane was incubated with secondary antibodies for 45 minutes in the dark. The membrane was washed again in TBST for three 5-minute washes with protection from light and scanned using the Odyssey Imaging System (LI-COR). Antibodies used were as follows: rabbit anti-phospho p42/44 MAPK (Cell Signaling Technology, #9101) and rabbit anti-p42/44 MAPK (Cell Signaling Technology, #9102). The secondary antibody was IR dye 800CW goat anti-rabbit IgG (LI-COR).

HT-1080 cells = assay: HT-1080 cell proliferation (Vi-Cell); format: cell-based, human; conditions: over 48 hours
Method: as §1

[3] = 2,2-diphenyl-1-picrylhydrazyl (DPPH) assay, cell-free antioxidant potential; conditions: test compound 0.05 mM, absorbance at 517 nm
Method: The stable radical DPPH (Blois, 1958) was dissolved in methanol to a final concentration of 0.05 mM. 1 mL of DPPH solution was added to 2 μL of each test compound dissolved in DMSO. The final concentration of each test compound was 0.05 mM. Samples were inverted several times and allowed to incubate at room temperature for 10 minutes. Samples were then aliquoted to white 96-well solid-bottom dishes (Corning) and absorbance at 517 nm was recorded using a TECAN M200 plate reader. All values were normalized to background (methanol only). The experiment was repeated twice. Results within each trial normalized to DMSO (=1.0), then averaged across trials.

SMILES: CCOC(=O)c1ccc(NC2CCCCC2)c(N)c1 [Fer-1, ferrostatin-1]
- EC50 [1]: 0.095 µM
- ERK phosphorylation [2]: did not inhibit ERK phosphorylation
- HT-1080 cell proliferation (HT-1080 cells): did not inhibit ERK phosphorylation or arrest the proliferation of HT-1080 cells
- intrinsic antioxidant capability (DPPH) [3]: readily oxidized the stable radical 2,2-diphenyl-1-picrylhydrazyl (DPPH)
